Experimental data: ChEMBL document CHEMBL1201862, “PubChem BioAssay data set” (2004)
“And” between values parts separate entries of the source, which are not always exact repeats. Identical values can stand only once.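 How tested: cells in 96-well plates exposed to compound for 48 hours at five concentrations. At the GI50, growth is halved.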 The source made the active and inactive calls. Cut-off read from the data, not from the text of the source: active = GI50 up to about 1.1 µM and inactive = higher.

Key:
Assay in all cases: DTP human tumour cell line panel, 48 h
[1] = tested on: 786-0
[2] = tested on: A498
[3] = tested on: A549
[4] = tested on: ACHN
[5] = tested on: CAKI-1
[6] = tested on: CCRF-CEM
[7] = tested on: COLO 205
[8] = tested on: DU-145
[9] = tested on: EKVX
[10] = tested on: HCC 2998
[11] = tested on: HCT-116
[12] = tested on: HCT-15
[13] = tested on: HL-60
[14] = tested on: HOP-62
[15] = tested on: HOP-92
[16] = tested on: HT-29
[17] = tested on: Hs-578T
[18] = tested on: IGROV-1
[19] = tested on: K562
[20] = tested on: KM12
[21] = tested on: LOX IMVI
[22] = tested on: M14
[23] = tested on: MDA-MB-231
[24] = tested on: MDA-MB-435
[25] = tested on: MDA-N
[26] = tested on: MOLT-4
[27] = tested on: Malme-3M
[28] = tested on: NCI-H226
[29] = tested on: NCI-H23
[30] = tested on: NCI-H460
[31] = tested on: NCI-H522
[32] = tested on: NCI/ADR-RES
[33] = tested on: OVCAR-3
[34] = tested on: OVCAR-4
[35] = tested on: OVCAR-5
[36] = tested on: OVCAR-8
[37] = tested on: PC-3
[38] = tested on: RPMI-8226
[39] = tested on: RXF 393
[40] = tested on: SF-268
[41] = tested on: SF-295
[42] = tested on: SF-539
[43] = tested on: SK-MEL-28
[44] = tested on: SK-MEL-2
[45] = tested on: SK-MEL-5
[46] = tested on: SK-OV-3
[47] = tested on: SN12C
[48] = tested on: SNB-19
[49] = tested on: SR
[50] = tested on: SW-620
[51] = tested on: T47D
[52] = tested on: TK-10
[53] = tested on: U-251
[54] = tested on: UACC-257
[55] = tested on: UACC-62
[56] = tested on: UO-31
[57] = tested on: MCF7
[58] = tested on: SNB-75

For CCOC(=O)/C(C(=S)NC)=C(/N)N1CCCC1, the GI50 [1] was > 100 µM (inactive), the GI50 [2] was > 100 µM (inactive) and the GI50 [3] was > 100 µM (inactive). For the same compound, the GI50 [4] was > 100 µM (inactive), the GI50 [5] was 77.1 µM (inactive) and the GI50 [6] was > 100 µM (inactive). For the same compound, the GI50 [7] was > 100 µM (inactive), the GI50 [8] was > 100 µM (inactive) and the GI50 [9] was > 100 µM (inactive). For the same compound, the GI50 [10] was > 100 µM (inactive), the GI50 [11] was > 100 µM (inactive) and the GI50 [12] was over 100 µM. For the same compound, the GI50 [13] was > 100 µM (inactive), the GI50 [14] was > 100 µM (inactive) and the GI50 [15] was > 100 µM (inactive). The GI50 [16] was > 100 µM (inactive), the GI50 [17] was > 100 µM (inactive) and the GI50 [18] was > 100 µM (inactive). The GI50 [19] was > 100 µM (inactive), the GI50 [20] was > 100 µM (inactive) and the GI50 [21] was > 100 µM (inactive). For the same compound, the GI50 [22] was > 100 µM (inactive), the GI50 [23] was > 100 µM (inactive) and the GI50 [24] was > 100 µM (inactive). The GI50 [25] was > 100 µM (inactive), the GI50 [26] was > 100 µM (inactive) and the GI50 [27] was > 100 µM (inactive). The GI50 [28] was > 100 µM (inactive), the GI50 [29] was > 100 µM (inactive) and the GI50 [30] was > 100 µM (inactive). The GI50 [31] was > 100 µM (inactive), the GI50 [32] was > 100 µM (inactive) and the GI50 [33] was > 100 µM (inactive). For the same compound, the GI50 [34] was > 100 µM (inactive), the GI50 [35] was > 100 µM (inactive) and the GI50 [36] was > 100 µM (inactive). The GI50 [37] was > 100 µM (inactive), the GI50 [38] was > 100 µM (inactive) and the GI50 [39] was > 100 µM (inactive). For the same compound, the GI50 [40] was > 100 µM (inactive), the GI50 [41] was > 100 µM (inactive) and the GI50 [42] was > 100 µM (inactive). The GI50 [43] was > 100 µM (inactive), the GI50 [44] was > 100 µM (inactive) and the GI50 [45] was > 100 µM (inactive). The GI50 [46] was > 100 µM (inactive), the GI50 [47] was > 100 µM (inactive) and the GI50 [48] was > 100 µM (inactive). For the same compound, the GI50 [49] was > 100 µM (inactive), the GI50 [50] was > 100 µM (inactive) and the GI50 [51] was > 100 µM (inactive). The GI50 [52] was > 100 µM (inactive), the GI50 [53] was > 100 µM (inactive) and the GI50 [54] was > 100 µM (inactive). The GI50 [55] was > 100 µM (inactive) and the GI50 [56] was 71.6 µM (inactive).
With CC1=C(C#N)C2C(=C(C)N1)C(N)=Nc1ccccc12 (stereo not drawn) the GI50 [1] was 43 µM (inactive), the GI50 [2] was 22.3 µM (inactive) and the GI50 [3] was 73.1 µM (inactive). The GI50 [4] was 47.6 µM (inactive), the GI50 [5] was 49.8 µM (inactive) and the GI50 [6] was 32.5 µM (inactive). The GI50 [7] was 42.8 µM (inactive), the GI50 [8] was 88.7 µM (inactive) and the GI50 [9] was 19.1 µM (inactive). The GI50 [10] was 35.2 µM (inactive), the GI50 [11] was 32.6 µM (inactive) and the GI50 [12] was 85.5 µM. For the same compound, the GI50 [13] was 29.3 µM (inactive), the GI50 [14] was 67.3 µM (inactive) and the GI50 [15] was 12.1 µM (inactive). The GI50 [16] was 38.3 µM (inactive), the GI50 [17] was 23 µM (inactive) and the GI50 [18] was 29.9 µM (inactive). For the same compound, the GI50 [20] was 27.6 µM (inactive), the GI50 [21] was 36 µM (inactive) and the GI50 [22] was 36.4 µM (inactive). The GI50 [57] was 80.5 µM (inactive), the GI50 [23] was 31.8 µM (inactive) and the GI50 [25] was 43.2 µM (inactive). For the same compound, the GI50 [26] was 33.2 µM (inactive), the GI50 [27] was 37.8 µM (inactive) and the GI50 [28] was 30 µM (inactive). For the same compound, the GI50 [29] was 55.2 µM (inactive), the GI50 [30] was 44.4 µM (inactive) and the GI50 [31] was 30.8 µM (inactive). For the same compound, the GI50 [32] was > 100 µM (inactive), the GI50 [33] was 28.4 µM (inactive) and the GI50 [34] was 37.4 µM (inactive). The GI50 [35] was 70.5 µM (inactive), the GI50 [36] was 55.6 µM (inactive) and the GI50 [37] was 29.6 µM (inactive). For the same compound, the GI50 [39] was 38 µM (inactive), the GI50 [40] was 39.4 µM (inactive) and the GI50 [41] was 30.6 µM (inactive). For the same compound, the GI50 [42] was 29.7 µM (inactive), the GI50 [43] was 63.4 µM (inactive) and the GI50 [44] was 81.8 µM (inactive). The GI50 [45] was 30 µM (inactive), the GI50 [46] was 76.4 µM (inactive) and the GI50 [47] was 38.5 µM (inactive). For the same compound, the GI50 [48] was 37.1 µM (inactive), the GI50 [58] was 8.17 µM (inactive) and the GI50 [49] was 41.1 µM (inactive). For the same compound, the GI50 [50] was 48.1 µM (inactive), the GI50 [51] was 31.4 µM (inactive) and the GI50 [52] was 46.8 µM (inactive). For the same compound, the GI50 [54] was 99.5 µM (inactive) and the GI50 [55] was 25.8 µM (inactive).
In the case of OCC(O)C(O)C(O)C(/C=N\Nc1ncnc2c(Br)cc(Br)cc12)=N/Nc1ncnc2c(Br)cc(Br)cc12 (stereo not drawn), the GI50 [4] is reported as 5.58 µM (inactive) and 6.35 µM (inactive), the GI50 [5] is reported as 4.85 µM (inactive) and 6.34 µM (inactive) and the GI50 [7] is reported as 3.17 µM (inactive) and 3.52 µM (inactive). The GI50 [8] was 5.9 µM (inactive) and 3.42 µM (inactive), the GI50 [16] was 4.84 µM (inactive) and 4.55 µM (inactive) and the GI50 [18] was 4.71 µM (inactive) and 2.49 µM (inactive). The GI50 [19] was 5.07 µM (inactive) and 5.15 µM (inactive), the GI50 [21] was 6.43 µM (inactive) and 10.1 µM (inactive) and the GI50 [22] was 8.2 µM (inactive) and 8.38 µM (inactive). The GI50 [57] was 1.24 µM (inactive) and 817 nM (active), the GI50 [23] was 3.67 µM (inactive) and 3.79 µM (inactive) and the GI50 [25] was 7.46 µM (inactive) and 6.08 µM (inactive). For the same compound, the GI50 [27] was 6.4 µM (inactive) and 3.76 µM (inactive), the GI50 [28] was 3.58 µM (inactive) and the GI50 [33] was 4.28 µM (inactive) and 2.88 µM (inactive). The GI50 [34] was 2.81 µM (inactive) and 3.27 µM (inactive), the GI50 [40] was 3.78 µM (inactive) and 3.15 µM (inactive) and the GI50 [42] was 8.85 µM (inactive). For the same compound, the GI50 [44] was 5.41 µM (inactive) and 3.27 µM (inactive), the GI50 [45] was 3.45 µM (inactive) and 4.71 µM (inactive) and the GI50 [49] was 3.4 µM (inactive) and 5.25 µM (inactive). For the same compound, the GI50 [50] was 5.46 µM (inactive), the GI50 [51] was 2.57 µM (inactive) and 2.62 µM (inactive) and the GI50 [53] was 2.49 µM (inactive) and 4.46 µM (inactive). The GI50 [54] was 8.15 µM (inactive) and 12.9 µM (inactive).
CC(C)(NC1=NCCO1)c1ccccc1 was tested, and the GI50 [1] was > 100 µM (inactive), the GI50 [2] was > 100 µM (inactive) and the GI50 [3] was > 100 µM (inactive). The GI50 [4] was > 100 µM (inactive), the GI50 [5] was > 100 µM (inactive) and the GI50 [7] was > 100 µM (inactive). The GI50 [8] was > 100 µM (inactive), the GI50 [9] was > 100 µM (inactive) and the GI50 [10] was > 100 µM (inactive). For the same compound, the GI50 [11] was > 100 µM (inactive), the GI50 [12] was over 100 µM and the GI50 [14] was > 100 µM (inactive). The GI50 [15] was > 100 µM (inactive), the GI50 [16] was > 100 µM (inactive) and the GI50 [17] was > 100 µM (inactive). The GI50 [18] was > 100 µM (inactive), the GI50 [20] was > 100 µM (inactive) and the GI50 [21] was > 100 µM (inactive). For the same compound, the GI50 [22] was > 100 µM (inactive), the GI50 [57] was > 100 µM (inactive) and the GI50 [23] was > 100 µM (inactive). For the same compound, the GI50 [24] was > 100 µM (inactive), the GI50 [25] was > 100 µM (inactive) and the GI50 [26] was > 100 µM (inactive). For the same compound, the GI50 [27] was > 100 µM (inactive), the GI50 [28] was > 100 µM (inactive) and the GI50 [29] was > 100 µM (inactive). The GI50 [30] was > 100 µM (inactive), the GI50 [31] was > 100 µM (inactive) and the GI50 [32] was > 100 µM (inactive). The GI50 [33] was > 100 µM (inactive), the GI50 [34] was > 100 µM (inactive) and the GI50 [35] was > 100 µM (inactive). For the same compound, the GI50 [36] was > 100 µM (inactive), the GI50 [37] was > 100 µM (inactive) and the GI50 [38] was > 100 µM (inactive). For the same compound, the GI50 [39] was > 100 µM (inactive), the GI50 [40] was > 100 µM (inactive) and the GI50 [41] was > 100 µM (inactive). For the same compound, the GI50 [42] was > 100 µM (inactive), the GI50 [43] was > 100 µM (inactive) and the GI50 [44] was > 100 µM (inactive). The GI50 [45] was > 100 µM (inactive), the GI50 [46] was > 100 µM (inactive) and the GI50 [47] was > 100 µM (inactive). For the same compound, the GI50 [48] was 43.4 µM (inactive), the GI50 [58] was > 100 µM (inactive) and the GI50 [50] was > 100 µM (inactive). For the same compound, the GI50 [51] was > 100 µM (inactive), the GI50 [52] was > 100 µM (inactive) and the GI50 [53] was > 100 µM (inactive). For the same compound, the GI50 [54] was > 100 µM (inactive), the GI50 [55] was > 100 µM (inactive) and the GI50 [56] was > 100 µM (inactive).
